According to patent publication US10760052B2, “Method of inhibiting tau phosphorylation” (priority 2012, dated 2020):
pIC50, pKd: −log10 of the molar value.

How the values were obtained:
α7nAChR = format: cell-based, rat
[1] = system: α7nAChR (Aβ42-α7nAChR interaction); experiment: Aβ42 affinity for α7nAChR in SK-N-MC cells; format: binding, human
Description: Data are means±SEM. n=11 for postmortem control tissue; n=6 for SK-N-MC cells.

NMDAR [2] = format: cell-based, human; settings: AD and Aβ42-treated control brain slices
FLNA = target: T1, FLNA (Homo sapiens, UniProt P21333); experiment: [3H]NLX competition binding to FLNA in SK-N-MC cell membranes; settings: read-out: IC50-L, inhibition of [3H]NLX binding
T1 construct: validate the use of that 5-mer peptide as a surrogate for the complete molecule in the assays carried out herein; host or cells: A7 cells

NMDAR [3] = experiment: Levels of signaling molecules associated with NMDAR (NR1) in slice cultures; format: cell-based, rat; settings: 0.1 μM Aβ42
Procedure: NMDAR activation and signaling was initiated by incubation of 6 slices with either 0.3 mM Mg^2+ containing KR (LMKR; basal) or LMKR containing 10 μM NMDA and 1 μM glycine at 37° C. for 30 minutes.
Ligand stimulation was terminated by the addition of 1 ml of ice-cold Ca^2+-free K-R containing mixture of protein phosphatase inhibitors, 0.5 mM EGTA and 0.1 mM EDTA. Brain slices were harvested by a brief centrifugation and were homogenized in 0.25 ml of ice-cold immunoprecipitation buffer. The homogenates were centrifuged at 1000×g for 5 minutes (4° C.) and the supernatant (post-mitochondrial fraction) was sonicated for 10 seconds on ice.
The resultant lysates were cleared by centrifugation at 50,000×g for 5 minutes and diluted with 0.75 ml of immunoprecipitation buffer. Protein concentrations were measured by Bradford method (Bio-Rad).
To determine the association of NMDARs with PSD-95, as well as NMDAR signaling, the levels of NMDAR subunits, PSD-95 and NMDAR-associated signaling molecules were measured in anti-NR1 immunoprecipitates. In these studies, brain slice lysates (100 μg) were immunoprecipitated overnight at 4° C. with 2 μg of immobilized anti-NR1 onto covalently conjugated protein A-agarose beads (Pierce-ENDOGEN). […]

[4] = system: tau protein phosphorylated at S202, T231 and T181; experiment: Aβ42-induced tau phosphorylation in rat frontal cortical synaptosomes; format: cell-based
Procedure: FIG. 4 in four panels as FIGS. 4A-4D, illustrates that FLNA-binding compounds reduce tau phosphorylation at all three phosphorylation sites. […] The three phosphoepitopes of tau were detected in immunoprecipitates using specific antibodies. […] Immunoprecipitates were determined by Western blotting (FIGS. 4A-4C) and quantified by densitometry (FIG. 4D).
FIG. 42, also in two panels, FIGS. 42A and 42B, illustrates that FLNA-binding compounds reduce tau phosphorylation at all three phosphorylation sites using the compounds and concentrations of FIG. 41 using immunoprecipitation and Western blotting. […] The three phosphoepitopes of tau were detected in immunoprecipitates using specific antibodies.
FIG. 44, also in two panels, FIG. 44A and FIG. 44B, illustrates that FLNA-binding compounds reduce tau phosphorylation at all three phosphorylation sites using the compounds and concentrations of FIG. 43 using immunoprecipitation and Western blotting. […] The three phosphoepitopes of tau were detected in immunoprecipitates using specific antibodies. Aβ42 strongly promotes tau phosphorylation at all three sites.
FIG. 46, also in two panels, FIG. 46A and FIG. 46B, illustrates that FLNA-binding compounds reduce tau phosphorylation at all three phosphorylation sites using the compounds and concentrations of FIG. 45 using immunoprecipitation and Western blotting. […] The three phosphoepitopes of tau were detected in immunoprecipitates using specific antibodies. Aβ42 strongly promotes tau phosphorylation at all three sites.
The three primary phosphorylation sites on tau protein were examined for their phosphorylation levels compared to total tau protein content. Tau, phosphorylated at these three sites, is a constituent of NFTs. Consistent with effects on FLNA-α7nAChR association, and ERK2 activation, all of the FLNA-binding compounds assayed, with 10 minute pre-incubation, decreased Aβ42-induced phosphorylation of tau at all three sites (FIG. 4).

FLNA-TLR4 association = experiment: FLNA association with TLR4 in organotypic frontocortical slice cultures; format: cell-based, rat; settings: 100 nM Aβ42, 16 hours, compound added simultaneously
Procedure: Tissue was harvested and solubilized, and a specific antibody against FLNA was used to immunoprecipitate FLNA and associated proteins. The FLNA immunoprecipitate was size-fractionated using SDS-PAGE, transferred and probed with specific antibodies directed against each of the following receptors: α7nAChR, TLR4, IR and MOR.
Rat brain slice organotypic culture methods were modified from those published previously. [Adamchik et al., Brain Res Brain Res Protoc 5:153-158 (2000).] FCX slices ([…]) were transferred to sterile, porous Millicell-CM inserts (0.4 μm). Each culture insert unit contained two brain slices and was placed into individual wells of a 12-well culture tray in 2 ml medium: 50% MEM with Earl's salts, 2 mM L-glutamine, 25% Earl's balanced salt solution, 6.5 g/l D-glucose, 20% fetal bovine serum (FBS), 5% horse serum, 25 mM HEPES buffer, pH 7.2, and […]. […]
The level of FLNA-associated α7nAChRs was determined using a co-immunoprecipitation/Western blotting method as described previously. […] The levels of FLNA-associated α7nAChR, TLR4, IR and MOR were assessed by Western blotting using specific antibodies directed against the respective proteins and the blot stripped and re-probed for FLNA for immunoprecipitation/loading control.

insulin receptor (IR) [5] = experiment: Postmortem human frontal cortex: IR activation and signaling; format: cell-based; settings: AD and Aβ42-treated control brain slices; 1 nM
Procedure: IR activation and signaling were initiated by incubation of approximately 10 mg of in vitro treated brain slices with either KR (basal) or KR containing 1 nM insulin at 37° C. for 30 minutes. […] Ligand stimulation was terminated by the addition of 1 ml of ice-cold Ca^2+-free K-R containing 0.5 mM EGTA and 0.1 mM EDTA. Brain slices were harvested by a brief centrifugation and were homogenized in 0.25 ml of ice-cold immunoprecipitation buffer. The homogenates were centrifuged at 1000×g for 5 minutes (4° C.) and the supernatant (post-mitochondrial fraction) is sonicated for 10 seconds on ice. […] The resultant lysates are then cleared by centrifugation at 50,000×g for 5 minutes and diluted with 0.75 ml of immunoprecipitation buffer. Protein concentrations are measured by Bradford method (Bio-Rad).
The blots were stripped and re-probed with anti-IRβ to assess the loading as appropriate.

insulin receptor (IR) [6] = experiment: IR activation and signaling (pY1150/1151 IRβ, IRS-1) in slice cultures; format: cell-based, rat; settings: insulin stimulation
Procedure: IR activation and signaling was initiated by incubation of 6 slices that were further chopped horizontally into 100 μm (100 μm×200 μm×3 mm) with either KR (basal) or KR containing 1 nM insulin at 37° C. for 30 minutes. […] Ligand stimulation was terminated by the addition of 1 ml of ice-cold Ca^2+-free K-R containing mixture of protein phosphatase inhibitors, 0.5 mM EGTA and 0.1 mM EDTA. Brain slices were harvested by a brief centrifugation and were homogenized in 0.25 ml of ice-cold immunoprecipitation buffer. The homogenates were centrifuged at 1000×g for 5 minutes (4° C.) and the supernatant (post-mitochondrial fraction) was sonicated for 10 seconds on ice. […] The resultant lysates were then cleared by centrifugation at 50,000×g for 5 minutes and diluted with 0.75 ml of immunoprecipitation buffer. Protein concentrations were measured by Bradford method (Bio-Rad).
In these experiments, brain slice lysates (100 μg) were immunoprecipitated overnight (about 18 hours) at 4° C. with 2 μg of immobilized anti-IRβ onto covalently conjugated protein A-agarose beads (Pierce-ENDOGEN). […]

[7] = target: T2, FLNA-α7nAChR/TLR4 and Aβ42-α7nAChR complexes (Homo sapiens, UniProt P21333); experiment: FLNA-α7nAChR/TLR4 and Aβ42-α7nAChR associations in AD and Aβ42-treated control lymphocytes; format: cell-based; settings: 1 nM, 30 minutes
T2 construct: endogenous in cells; host or cells: lymphocytes of AD patients and control subjects
Procedure: Because lymphocytes contain α7nAChR and TLR4, whether the associations of these receptors with FLNA are increased in the lymphocytes of AD patients and whether Compound C0105 treatment ex vivo could disrupt these associations were assessed. Also assayed was the effect of Compound C0105 on Aβ42-α7nAChR complexes in AD lymphocytes and Aβ42-treated lymphocytes from age-matched control subjects.

α7nAChR-FLNA complex = target: T3, α7nAChR-FLNA complex (Homo sapiens, UniProt P21333); experiment: Postmortem human frontal cortex: α7nAChR-FLNA association; format: cell-based; settings: AD and Aβ42-treated control tissue; 0.1 or 1 nM
T3 construct: from tissue; host or cells: postmortem frontal cortex slices / synaptosomes (AD and control subjects)
Procedure: (§1) Postmortem frontal cortex tissues were gradually thawed (from −80° C. to −20° C.) and were sliced using a chilled McIlwain tissue chopper (200 μm×200 μm×3 mm). […] Following two additional washes with 1 ml of ice-cold K-R, brain slices were suspended in 1 ml of K-R.
(§2) Incubation continued for 1 hour in the dark to minimize light destruction of the test agents. […] Reaction was terminated by the addition of 1.5 ml of ice-cold Ca^2+-free K-R. Tissue slices were harvested by a brief centrifugation and used as the tissue sources for various assays.

[8] = system: voltage-gated calcium channel-mediated Ca2+ influx; format: cell-based, human; settings: postmortem AD tissue; 1 nM
Aβ42-α7nAChR complexes = experiment: Postmortem human frontal cortex: Aβ42-α7nAChR complexes; format: cell-based; settings: AD and Aβ42-treated control tissue; 0.1 and 1 nM
Procedure: as §1, §2

T3 sequence (P21333 2-2647, one chain of several): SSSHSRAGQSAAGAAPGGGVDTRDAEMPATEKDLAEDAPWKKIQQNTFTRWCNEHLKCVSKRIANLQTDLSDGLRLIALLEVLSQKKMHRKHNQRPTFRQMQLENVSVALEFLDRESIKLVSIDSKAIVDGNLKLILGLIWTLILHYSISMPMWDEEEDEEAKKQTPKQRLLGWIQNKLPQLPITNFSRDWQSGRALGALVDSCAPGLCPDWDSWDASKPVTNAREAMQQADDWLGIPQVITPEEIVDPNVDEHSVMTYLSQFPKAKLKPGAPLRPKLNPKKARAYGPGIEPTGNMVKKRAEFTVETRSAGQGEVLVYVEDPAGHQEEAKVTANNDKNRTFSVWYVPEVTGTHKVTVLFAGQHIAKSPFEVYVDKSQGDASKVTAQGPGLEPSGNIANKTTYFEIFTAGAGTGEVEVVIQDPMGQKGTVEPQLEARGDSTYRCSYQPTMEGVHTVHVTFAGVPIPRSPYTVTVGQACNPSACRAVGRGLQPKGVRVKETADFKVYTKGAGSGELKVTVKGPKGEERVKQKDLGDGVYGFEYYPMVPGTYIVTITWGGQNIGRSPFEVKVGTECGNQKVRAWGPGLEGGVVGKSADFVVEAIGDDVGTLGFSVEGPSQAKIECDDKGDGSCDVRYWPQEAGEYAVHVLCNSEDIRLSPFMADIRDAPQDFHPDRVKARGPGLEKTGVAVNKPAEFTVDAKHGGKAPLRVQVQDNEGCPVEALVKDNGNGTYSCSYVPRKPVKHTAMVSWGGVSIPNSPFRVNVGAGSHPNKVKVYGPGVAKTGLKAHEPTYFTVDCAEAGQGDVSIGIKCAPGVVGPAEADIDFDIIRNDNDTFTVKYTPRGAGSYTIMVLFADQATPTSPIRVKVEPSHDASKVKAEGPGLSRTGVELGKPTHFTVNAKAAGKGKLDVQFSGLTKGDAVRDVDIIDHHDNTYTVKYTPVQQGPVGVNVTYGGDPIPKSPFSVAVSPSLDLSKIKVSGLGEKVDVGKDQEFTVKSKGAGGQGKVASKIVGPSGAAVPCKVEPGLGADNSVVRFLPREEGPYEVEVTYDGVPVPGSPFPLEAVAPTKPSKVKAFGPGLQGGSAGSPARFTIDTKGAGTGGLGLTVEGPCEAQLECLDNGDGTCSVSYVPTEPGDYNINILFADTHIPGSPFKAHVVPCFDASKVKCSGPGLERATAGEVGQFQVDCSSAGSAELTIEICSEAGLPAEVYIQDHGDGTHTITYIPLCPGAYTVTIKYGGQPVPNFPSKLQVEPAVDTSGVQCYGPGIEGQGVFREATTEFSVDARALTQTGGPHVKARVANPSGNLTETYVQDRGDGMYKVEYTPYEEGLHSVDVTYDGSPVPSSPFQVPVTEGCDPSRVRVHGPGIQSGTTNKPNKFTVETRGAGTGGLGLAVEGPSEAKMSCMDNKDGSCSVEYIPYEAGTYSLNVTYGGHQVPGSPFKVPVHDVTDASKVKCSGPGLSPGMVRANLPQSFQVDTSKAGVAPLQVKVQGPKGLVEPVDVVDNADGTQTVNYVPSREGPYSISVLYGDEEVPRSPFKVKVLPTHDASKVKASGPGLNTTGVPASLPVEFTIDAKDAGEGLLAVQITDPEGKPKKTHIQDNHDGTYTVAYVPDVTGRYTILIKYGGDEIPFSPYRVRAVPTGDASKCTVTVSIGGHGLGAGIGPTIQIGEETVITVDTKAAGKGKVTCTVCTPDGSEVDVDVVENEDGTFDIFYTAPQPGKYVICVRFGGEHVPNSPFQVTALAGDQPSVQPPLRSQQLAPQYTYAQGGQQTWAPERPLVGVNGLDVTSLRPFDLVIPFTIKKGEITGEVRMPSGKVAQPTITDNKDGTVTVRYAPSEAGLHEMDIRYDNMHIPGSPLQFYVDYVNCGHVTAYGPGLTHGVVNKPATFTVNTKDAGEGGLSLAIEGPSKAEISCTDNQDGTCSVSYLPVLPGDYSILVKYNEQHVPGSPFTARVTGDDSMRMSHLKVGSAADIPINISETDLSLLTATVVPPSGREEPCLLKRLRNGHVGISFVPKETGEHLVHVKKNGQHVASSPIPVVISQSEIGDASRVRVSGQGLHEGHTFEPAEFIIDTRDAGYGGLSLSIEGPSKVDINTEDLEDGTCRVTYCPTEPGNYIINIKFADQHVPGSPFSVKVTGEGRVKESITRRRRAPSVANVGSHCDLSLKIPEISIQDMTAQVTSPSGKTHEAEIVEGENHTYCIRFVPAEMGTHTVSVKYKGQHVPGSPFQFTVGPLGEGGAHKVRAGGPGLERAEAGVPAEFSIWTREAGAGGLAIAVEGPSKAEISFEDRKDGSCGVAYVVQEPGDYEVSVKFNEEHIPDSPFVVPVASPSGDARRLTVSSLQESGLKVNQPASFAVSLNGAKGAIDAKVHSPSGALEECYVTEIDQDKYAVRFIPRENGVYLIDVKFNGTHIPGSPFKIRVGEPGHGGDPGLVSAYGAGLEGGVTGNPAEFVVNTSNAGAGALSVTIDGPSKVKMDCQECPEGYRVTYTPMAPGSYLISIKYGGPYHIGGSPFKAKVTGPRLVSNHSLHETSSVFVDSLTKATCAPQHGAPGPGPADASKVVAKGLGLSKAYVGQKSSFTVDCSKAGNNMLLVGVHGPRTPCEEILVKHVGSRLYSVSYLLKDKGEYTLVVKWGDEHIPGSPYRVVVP
T2 sequence (P21333 2-2647, one chain of several): as above

CN1CCC2(CC1)NCC(=O)N2Cc1ccccc1 [Compound C0105]
Aβ42-induced impairment in α7nAChR function (calcium influx after PNU282987) (α7nAChR): fully restoring function
Reduction of Aβ42 binding affinity for α7nAChR ([1]; fresh SK-N-MC cells, n=6): 10,000 fold
pKd ([1]; read-out: Aβ42 binding affinity for α7nAChR with Compound C0105, SK-N-MC cells): 9.00
Functioning of NMDAR (calcium influx after receptor stimulation) (NMDAR [2]): preserves functioning
pIC50 (FLNA): 9.95
Levels of six signaling molecules associated with NR1 after NMDA and glycine (NMDAR [3]): fully restored function
Aβ42-induced tau phosphorylation at S202, T231 and T181 ([4]; 1 or 10 nM compound, simultaneously or 10-minute pretreatment, Aβ42 0.1 μM): reduced this phosphorylation at both concentrations
Aβ42-induced phosphorylation of tau ([4]; simultaneous administration): reduced tau phosphorylation with simultaneous administration
Aβ42-induced increase in FLNA-TLR4 association (FLNA-TLR4 association): reduced the increase in FLNA-TLR4 at 1 and 10 nM
IR signaling assemblies (insulin receptor (IR) [5]): Normalization of receptor function
Aβ42-induced IR signaling impairments (IRS-1 association, pY1150/1151 IRβ) (insulin receptor (IR) [6]): normalized the signaling impairments
FLNA associations with α7nAChR and TLR4 in lymphocytes [7]: significantly reduced
FLNA association with α7nAChR (α7nAChR-FLNA complex): reduces Aβ42-induced FLNA association with α7nAChR and TLR4
Deficit in depolarization-induced calcium influx [8]: attenuated the deficit
Aβ42-α7nAChR complexes (Aβ42-α7nAChR complexes): reduces Aβ42-α7nAChR complexes
